Tested on: Leishmania donovani promastigotes
Assay: Viability of Leishmania donovani promastigotes (MTT reduction)
Type: cell-based
Conditions: L. donovani promastigotes 20 × 10^6 cells/mL, 4 h, 26 °C, full range of concentrations assayed (comparison 15 vs 16 at 5, 10 and 25 μM)
Method: The cellular viability in the presence of the peptides was assessed by the MTT reduction at both stages of the parasite after 4 h incubation (Figure 5).
The experiments were carried out with Leishmania donovani promastigotes (MHOM/SI/00/1S-2D strain) and Leishmania pifanoi amastigotes (MHOM/VE/60/Ltrod strain), respectively. Promastigotes were grown at 26 °C in RPMI medium supplemented with 10% of FCS, 2 mM L-glutamine, 20 U/mL unicillin 20 plus 48 µg/mL gentamicin.
The viability assays were carried out using the reduction of MTT as described. The parasites were aliquoted into 96-microwell plates at a final concentration of 20 × 10^6 cells/mL in HBSS supplemented with 10 mM D-glucose. The peptides were incubated for 4 h at the corresponding peptide concentration at 26 °C or 32 °C for promastigotes and axenic amastigotes, respectively. […] The resulting formazan was solubilized with […] (1% final concentration) and read at 595 nm in a Bio-Rad 640 microplate reader.
(a) L. pifanoi axenic amastigotes. […] Axenic Leishmania parasites (20 × 10^6 cells/mL) were incubated with the peptides, and MTT reduction measured immediately after 4 h incubation. […]
Figure 8 Viability of Leishmania donovani promastigotes treated with Dox-conjugates 15 and 16 along with Dox and Dox-TAT. Parasites were incubated with the respective reagents (20 × 10^6 cells/mL, 4 h, 26 °C), and MTT reduction measured afterwards. […]

COc1cccc2c1C(=O)c1c(O)c3c(c(O)c1C2=O)C[C@@](O)(C(=O)CO)C[C@@H]3O[C@H]1C[C@H](N)[C@H](O)[C@H](C)O1 [doxorubicin]
Toxicity towards promastigotes (in words): did not show any toxicity

Source: paper PMC7590151, “Chiral Cyclobutane-Containing Cell-Penetrating Peptides as Selective Vectors for Anti-Leishmania Drug Delivery Systems” (International Journal of Molecular Sciences, 2020)
